Measurements from patent US7632814B2, “HYD1 peptides as anti-cancer agents” (University of South Florida, priority 2006, dated 2009).
Where no end group is shown, it is not given here. [ ]: non-standard residue; d: D form. 5(6)‑FAM = 5(6)-carboxyfluorescein

Assays:
[1] = tested on: DU145 prostate cancer cells; conditions: DeRoock et al. 2001; cited from earlier work
H929 cells [2] = assay: Electron microscopy of double membrane vesicles; format: cell-based; conditions: 100 μg/ml, 4 hours
Method: H929 cells were treated with either 100 µg/ml HYD1 (FIG. 24A) or HYD1S (FIG. 24B) for four hours and processed for electron microscopy as described in materials and methods.
Electron Microscopy. H929 cells were treated for four hours with either 100 μg/ml HYD1 or HYD1S. After peptide treatment, the samples were fixed overnight in 2.5% glutaraldehyde in 0.1M phosphate buffer, pH 7.2 overnight at four degrees. Following fixation, the cells were rinsed 2 times for 10 minutes each in 0.1M phosphate buffer, pH 7.2, at 4° C. The cells were loosely pelleted in microcentrifuge tubes at 500×G for 3 minutes. The buffer was removed from the cells and replaced with 1% osmium tetroxide in the above buffer at 4° C. The cells were resuspended and post-fixed for 1 hour, then loosely pelleted and rinsed in the above buffer. This step was repeated for a total of 3 rinses of 5 minutes each, with the cells being resuspended after each buffer change. Cells were dehydrated through a graded series of acetone, 30%, 50%, 70%, and 95% acetone in water, 5 minutes per change with loose pelleting at 750×G for 5 minutes, then resuspension for each step. The cells were then dehydrated through three changes of 100% acetone, 10 minutes per change, with a 5 minute pelleting step at 1000×G, followed by resuspension in each step. […]

8226 cells = assay: HS-5 co-culture (SF+A) model of drug resistance, melphalan apoptosis; format: cell-based; conditions: 8226 cells co-cultured with HS-5, 50 μg/ml peptide, with melphalan
Method: (§1) Co-culture model. HS-5/GFP cells were plated at a density of 500,000 cells per ml and incubated overnight. Myeloma cells were incubated with vehicle control (water), 50 μg/ml HYD1 or 50 μg/ml HYD1S 30 minutes prior to the addition of myeloma cells (400,000 cell/ml) to either control plates or plates containing HS-5 cells. Myeloma cells were incubated with HS-5 cells for three hours prior to the addition of melphalan. Apoptotic cells were measured in GFP negative myeloma cells, by annexin PE staining and FACS analysis (n=9). ANOVO was performed to determine significance between conditions.
(§2) Briefly, 8226 myeloma cells were pre-incubated with varying concentrations of either HYD1 or the scrambled HYD1S peptide for 30 minutes prior to allowing cells to attach to FN for two hours. Following two hours of cell adhesion, the amount of cells adherent to FN was measured. The next objective was to determine whether treatment of tumor cells with HYD1 results in potentiation of melphalan induced cell death in the BMS co-culture model (SF+A). […] For these studies, the HYD1 and HYD1S were pre-incubated with the […] for 30 minutes, and then cells and culture media containing the peptide were placed into the S-5 culture dish. Myeloma cells were co-cultured for an additional 3 hours with HS-5 cells before the addition of melphalan. Twenty-four hours after drug treatment, apoptosis was measured by Annexin V-PE positive events by FACS analysis. The HS-5 cells constitutively express GFP and thus it is possible to gate GFP negative cells only (myeloma cells) for the apoptotic analysis.

H929 cells [3] = assay: as above; format: cell-based; conditions: H929 cells co-cultured with HS-5, 50 μg/ml peptide, with melphalan
Method: as §1, §2

H929 cells [4] = assay: Lysosensor staining of acidic vesicles, confocal microscopy; format: cell-based; conditions: 100 μg/ml, six hours, compared to control cells
Method: Lysosensor green was used to detect acidic compartments and live cell imaging was performed by confocal microscopy. Shown is a representative figure. The experiment was repeated three independent times and similar results were obtained.
Lysosensor staining. 35 mm glass bottom microwell dishes were incubated with 10 ul Cell-tak (BD biosciences San Jose, Calif.) and 290 ul 0.5M sodium bicarbonate (Sigma) for 30 minutes. The plates were aspirated and 200,000H929 or 8226 cells were plated. Cells were then treated with either water (VC), 100 μg/ml HYD1 or 100 μg/ml HYD1S for 6 hours. After the 6-hour incubation, the plates were aspirated and washed once with warm media. Media containing 1 μM lysosensor DND-189 (Molecular Probes, Carlsbad Calif.) and 20 μM Hoechst 33342 (Molecular Probes) was added and samples were incubated for an additional 30 minutes. Samples were analyzed with a Leica DMI6000 inverted TCS SP5 confocal scanner (Leica Microsystems, Germany). 405 Diode and Argon laser lines were applied to excite the samples and tunable filters were used to minimize the crosstalk between fluorochromes. Gain, offset, and pinhole setting were identical for all samples within the treatment group. Image sections at […] were captured with photomultiplier detectors and maximum projections were prepared with the LAS AF software version 1.6.0 build 1016 (Leica Microsystems, Germany).

[5] = tested on: phospho Pyk2 in H929 cells; assay: Phospho-Pyk2 levels in suspension culture (immunoblot); format: cell-based; conditions: H929 cells cultured in suspension
Description: Based upon the observation that HYD1 increased melphalan induced apoptosis in suspension cultures, whether treatment with HYD1 inhibits phosphorylation of a downstream mediator of β1 integrin signaling (Pyk2) in suspension cultures was investigated.

β1 integrin = target: T1, β1 integrin (Homo sapiens, UniProt P05556); assay: Binding of peptide to the cell surface
T1 construct: endogenous in cells
T1 sequence (P05556 21-798): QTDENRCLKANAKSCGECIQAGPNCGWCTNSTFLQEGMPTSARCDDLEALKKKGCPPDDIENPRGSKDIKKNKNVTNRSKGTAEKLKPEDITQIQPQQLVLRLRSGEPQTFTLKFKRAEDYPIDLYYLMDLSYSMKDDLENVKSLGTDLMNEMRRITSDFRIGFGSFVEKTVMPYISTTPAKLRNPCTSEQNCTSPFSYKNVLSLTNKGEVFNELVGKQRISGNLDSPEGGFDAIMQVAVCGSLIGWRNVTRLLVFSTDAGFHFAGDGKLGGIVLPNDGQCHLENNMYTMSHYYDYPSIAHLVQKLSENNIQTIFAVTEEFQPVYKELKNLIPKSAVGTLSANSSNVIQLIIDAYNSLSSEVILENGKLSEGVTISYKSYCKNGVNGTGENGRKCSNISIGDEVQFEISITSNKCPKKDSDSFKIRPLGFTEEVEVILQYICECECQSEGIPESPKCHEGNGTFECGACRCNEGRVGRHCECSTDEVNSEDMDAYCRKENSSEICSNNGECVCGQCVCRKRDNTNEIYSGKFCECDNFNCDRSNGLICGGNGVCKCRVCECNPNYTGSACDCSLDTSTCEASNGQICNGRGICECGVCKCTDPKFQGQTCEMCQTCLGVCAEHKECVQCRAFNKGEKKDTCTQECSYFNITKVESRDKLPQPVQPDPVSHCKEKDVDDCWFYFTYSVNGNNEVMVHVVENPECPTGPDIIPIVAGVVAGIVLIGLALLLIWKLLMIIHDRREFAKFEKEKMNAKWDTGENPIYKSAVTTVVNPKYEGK
Description: Another aspect of the invention concerns a method of identifying modulators of peptide binding (a screen for molecules that displace peptide binding). Agents that are identified as being capable of competing with the HYD1 peptides of the invention for binding to β1 integrin may have utility as cytotoxic agents for research or therapy (e.g., for cancer treatment). The method comprising providing a candidate agent (such as a chemical compound, antibody, nucleic acid, or peptide); and determining whether the agent inhibits (e.g., disrupts, prevents, or interferes with), the ability of a HYD1 peptide of the invention (HYD1 or a fragment or variant thereof) to bind to β1 integrin on a cell surface (e.g., cancer cell surface) and/or inhibit β1 integrin mediated adhesion, in vitro or in vivo (e.g., in an animal model). Preferably, the cell is a cancer cell such as a myeloma cell or a cell of other cancer types (see, for example Table 1). Preferably, the peptide is labeled with a detectable moiety (e.g., a fluorescent tag, such as […]) to facilitate the determining step. Examples of controls that may be utilized in carrying out the screening method include, but are not limited to, unlabeled HYD1 peptides (HYD1, or a fragment or variant thereof); scrambled peptides (such as HYD1S); β1 integrin blocking antibody; and non-specific surface antigen binding antibody (such as CD138 for myeloma cells). Advantageously, using the screening assay, labeled HYD1 or fragments or variants thereof, can be used to screen candidates such as small molecules, on natural product libraries, in a rapid, high-throughput fashion. […] Fluorescence polarization (FP) analysis can be used to screen small molecule or natural product libraries for discovery of novel compounds that mimic the specific binding and potentially the biological activity of HYD1. The FP assay is based on the extent of depolarization of the free versus bond peptide, which can be accurately measured on commercially available FP plate readers. […] In summary, a high throughput screen (HTS) can be used to bind small molecules prior to the addition of an HYD1 probe and molecules of interest can be identified by displacement of bond peptide, with a corresponding increase in unbound peptide by FP analysis. An analogous high-throughput binding assay based on fluorescence polarization, which allows screening for small molecules that bind to the STAT3 SH2 domain, is described in Schust J. and Berg T., Anal Biochem., 2004 Jul. 1; 330(1):114-8. […]

Myeloma cells = assay: Apoptotic activity of HYD1 variants in myeloma cells (cell line not stated); format: cell-based
Method: Myeloma cells were plated at a density of 400,000 cells per ml in a 24 well plate. Cells were treated with the indicated dose of the peptide for 24 hours. Following 24 hrs of peptide exposure, apoptotic cells were detected using Annexin V staining and FACS analysis. Ten thousand events were analyzed by flow cytometry (Becton Dickinson, San Jose, Calif.). Experiments were performed in triplicate and repeated twice. Shown is a representative figure.

prostate tumor cell = assay: Cell adhesion supported by immobilized HYD1 fragments and variants; format: cell-based; conditions: truncation and alanine substitution of HYD1
Description: Defining the minimal region of HYD1 necessary to potentiate drug-induced apoptosis in suspension and adherent cultures is of interest. Below is a study to determine the minimal HYD1 sequence required to block prostate tumor cell migration. Similar studies as those outlined below and using the same peptide sequences will be used to determine the minimal amino acid sequence required for potentiation of drug induced apoptosis.
To determine the minimal element of immobilized HYD1 required for cell adhesion, the N and C terminus was systematically truncated one amino acid at a time (FIG. 14A). Most of the adhesion activity was retained with the deletion of lys-glycine from the C-terminus. However, the peptide no longer supported cell adhesion if the next residue, tryptophan was removed. Deletion of the N-terminus on the other hand, was tolerated very well until the third residue, methionine, was removed, leading to gradual decrease in cell binding.

## wiksmkivkg ([dW][dI][dK][dS][dM][dK][dI][dV][dK]G) [HYD1S, reference compound]
[1]
  inhibition of cell adhesion to extracellular matrixes: not to inhibit cell adhesion
H929 cells [2]
  formation of double membranes / vesicles (EM): small vesicles fused with lysosomes were observed
8226 cells
  potentiation of melphalan-induced apoptosis in the SF+A model: but not the scrambled peptide (HYD1S) potentiates melphalan-induced cell death
H929 cells [3]
  potentiation of melphalan-induced apoptosis in the SF+A model: but not the scrambled peptide (HYD1S) potentiates melphalan-induced cell death
H929 cells [4]
  number and size of acidic vesicles: large vesicles noted with HYD1 treatment in both the lysosensor staining and EM analysis were not detected
[5]
  phospho Pyk2 levels: but not HYD1S reduces phospho Pyk2 levels

## FAM-HYD1: HYD1 with R=5(6)-FAM (carboxyfluorescein) ({5(6)‑FAM}-[dK][dI][dK][dM][dV][dI][dS][dW][dK]G)
β1 integrin
  binding to the cell surface: binds to the cell surface
  blocking of cell surface binding by β1 integrin antibody: can be blocked
Myeloma cells
  biological activity of conjugated HYD1: retains biological activity

## ikmvisw (IKMVISW; HYD1 fragment)
Prostate tumor cell
  cell adhesion supported by immobilized peptide: retained full cell adhesion activities
